Experimental data as given in publication PMC2685736, “Conservation of a conformational switch in RadA recombinase from Methanococcus maripaludis” (Acta Crystallographica Section D: Biological Crystallography, 2009).

Experiments:
MmRadA [1] = target: T1, MmRadA (Methanococcus maripaludis, UniProt P0CW58); experiment: X-ray crystallography, […]-2.[…] A; format: binding; conditions: Mg2+, pH 7.9; 0.4 M NH4Cl (3ewa), 0.4 M KCl (3ew9) or 0.1 M NH4Cl (3etl); ATPase site at the monomer interface
T1 construct: gene radA; full open reading frame in pET28a (NcoI/XhoI), expressed in E. coli BL21 Rosetta2 (DE3); no tag mentioned; helical filament, nucleotide buried between adjacent monomers; P-loop Gly105-Thr112, His280, Asp302

MmRadA [2] = target: T1, MmRadA; experiment: Malachite Green phosphate release (ATPase); format: biochemical; conditions: 5 mM ATP, 10 mM MgCl2, pH 7.4, 100 mM KCl, poly-(dT)36 ssDNA; mere turnover

T1 sequence (P0CW58 whole entry): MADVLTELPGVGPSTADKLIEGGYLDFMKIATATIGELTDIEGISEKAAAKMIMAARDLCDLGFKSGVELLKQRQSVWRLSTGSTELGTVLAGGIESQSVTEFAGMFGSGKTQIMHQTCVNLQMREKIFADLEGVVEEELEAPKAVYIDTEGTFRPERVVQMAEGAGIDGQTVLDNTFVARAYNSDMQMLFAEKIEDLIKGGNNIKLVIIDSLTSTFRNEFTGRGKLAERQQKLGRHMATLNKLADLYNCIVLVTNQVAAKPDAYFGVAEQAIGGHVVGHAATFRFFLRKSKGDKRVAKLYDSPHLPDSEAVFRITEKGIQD

Nc1ncnc2c1ncn2[C@@H]1O[C@H](COP(=O)(O)OP(=O)(O)NP(=O)(O)O)[C@@H](O)[C@H]1O [AMPPNP]
X-ray crystallography, 2.0-2.4 A (MmRadA [1]): The nonhydrolyzable ATP analogue AMPPNP is buried between the MmRadA monomers as expected.

Nc1ncnc2c1ncn2[C@@H]1O[C@H](COP(=O)(O)OP(=O)(O)OP(=O)(O)O)[C@@H](O)[C@H]1O [ATP]
Malachite Green phosphate release (ATPase) (MmRadA [2]): the M. maripaludis protein also actively catalyzed ATP hydrolysis in the presence of potassium
